Data set [1] in a line: Study 1: single-escalating oral dose pharmacokinetics, incl. food effect (Phase 1). The format is in vivo, human. The settings on record: 50 to 800 mg, fed state. The protocol:
Study 1 was the first-in-human study that investigated the safety, tolerability, and PK of single-escalating doses of Compound 1, given orally, to healthy adult subjects. […] The data from this study were used for the selection of doses for Study 2.
In Study 1, Compound 1 was administered to healthy adult subjects as a single PO dose of 2, 10, 50, 150, 400, or 800 mg in the fed state and 150 mg in the fasted state. Absorption occurred moderately late, achieving peak Cmax between 4 to 6 hours following dosing in the fed state.
When Compound 1 was given in the fed state, median time to reach maximum plasma concentration (Tmax) occurred between 4 and 6 hours.
As part of this single-dose escalation study, a food effect PK investigation was performed to examine Compound 1 exposures in both the fed and fasted states at the 150-mg dose level. A total of 6 subjects were administered 150 mg Compound 1 in each of these 2 dosing groups. Of these 6 subjects, 4 subjects received Compound 1 at the same dose in both fed and fasted states. […] Table 6 provides a summary of the PK parameters at the 150-mg dose level under both fed and fasted state conditions.
PK parameters AUC0-∞ and Cmax were analyzed separately for dose proportionality for Compound 1 from 50 to 800 mg when administered in the fed state. […]

The target in another data set is T1, CRF1 receptor (Homo sapiens, UniProt P34998).
T1 construct: from tissue; host or cells: in vivo, human patients (anterior pituitary corticotrophs)
T1 sequence (P34998 24-415): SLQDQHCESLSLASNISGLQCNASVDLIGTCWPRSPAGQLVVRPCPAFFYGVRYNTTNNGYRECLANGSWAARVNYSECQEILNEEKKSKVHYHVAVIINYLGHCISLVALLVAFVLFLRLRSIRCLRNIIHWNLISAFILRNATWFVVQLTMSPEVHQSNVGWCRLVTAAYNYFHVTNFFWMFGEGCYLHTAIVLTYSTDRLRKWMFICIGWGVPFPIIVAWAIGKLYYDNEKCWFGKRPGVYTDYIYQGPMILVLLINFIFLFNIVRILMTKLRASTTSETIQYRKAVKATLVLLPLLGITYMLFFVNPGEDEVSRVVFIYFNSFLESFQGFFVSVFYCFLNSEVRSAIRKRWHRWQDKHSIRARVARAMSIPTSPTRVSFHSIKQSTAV
In words: Phase 2 study in adults with classic CAH: hormone response (ACTH, 17-OHP, androstenedione). The format is in vivo. The text has this: Cohort A of the Phase 2 Study includes a 6-week, multiple-dose, dose escalation study of Compound 1 for the treatment of adults with classic CAH. After screening, eligible patients will be enrolled into a 6-week treatment period followed by a 4-week washout/safety follow-up period.
This cohort will be conducted in approximately 9 patients, who will receive Compound 1 daily for up to 6 weeks. Compound 1 will be administered as an oral daily dose. Patients will undergo titration of Compound 1 through three escalating dosage strengths at 2-week intervals. […]
Patients in Cohort B will receive study drug at 200 mg BID, with a dose in the morning and a dose in the evening, either with a meal or consumption of a standardized snack. For Cohorts C and D, the dose level and the frequency and timing of dosing will be determined based on interim data from the previous cohorts. […]
• 1. […] To assess the efficacy of Compound 1 in subjects with classic CAH as measured by percent and absolute change in 17-OHP compared to baseline.
• 3. To explore the dose(s) of Compound 1 that cause pharmacodynamics changes in plasma concentrations of ACTH, androstenedione, and testosterone, as measured by the absolute and percent change from baseline by dose. • 4. […]

Data set [2] is described as follows: Study 2 Part A: multiple-dose, dose-escalation pharmacokinetics (Phase 1, 14 days). The settings on record: after 2 weeks of dosing. Type of data set: in vivo, human. The protocol:
The 2-part multiple-dose study, Study 2, determined the safety and tolerability of repeated daily doses of Compound 1 and investigated the effects on biomarkers of relevance for the treatment of alcohol dependence.
PK were also evaluated in the multiple-dose, dose-escalation study, Study 2. In Part A of the study, subjects were divided into 3 cohorts and received 50, 150, or 200 mg Compound 1 or placebo for 14 consecutive days (at least 6 subjects received Compound 1 and 2 subjects received placebo in each cohort). […] All dosing occurred in the fed state. An assessment of diurnal cortisol levels, plus when under conditions of glucose clamp, were also carried out both prior to and during the dosing period.
Consistent with the single-dose study (Study 1), concentrations appeared to decline in a bi-exponential manner, characterized by a rapid decrease within the first 24 hours. […] The Tmax appeared to be consistent across doses. Overall half-lives, weight normalized CL/F and V/F were consistent for 150 and 200 mg. However, the values for these latter 2 parameters were almost doubled at the 50-mg dose level. Variability (CV %) for apparent clearance and volume of distribution were large and not reduced with weight-normalization.
Table 8 presents the results of the dose proportionality assessment for the AUC0-24 and Cmax over the tested dose range.

The source of these data is patent US20210361664A1, “CORTICOTROPIN RELEASING FACTOR RECEPTOR ANTAGONISTS” (Spruce Biosciences, Inc., priority 2017, published 2021).

As to `CCC(CC)c1cc(C)nc2c(-c3sc(N4CCOCC4)nc3Cl)c(C)nn12` [Compound 1, 3-(4-Chloro-2-(morpholin-4-yl)thiazol-5-yl)-7-(1-ethylpropyl)-2,5-dimethylpyrazolo(1,5-a)pyrimidine], in data set [1], the “AUC0-∞ increase for every doubling of dose, relative to dose proportionality” value is recorded as 1.74 times and the “Cmax dose proportionality, in words” value is “more than dose proportional”. In addition, the “subjects with 17-OHP within the guideline range after treatment” value at CRF1 receptor (guideline range (1200 ng/dL)) came out at 50%. For the same molecule, on CRF1 receptor (patients with CAH), the “morning rise in A4” value is listed as “attenuates”. For the same molecule, the “Blood concentrations relative to steady state” value in data set [2] is recorded as “close to steady-state levels”.
